# Experimental data from patent US20250360107A1, “USE OF MAZINDOL TO TREAT NERVOUS SYSTEM DISORDERS” (AXSOME THERAPEUTICS, INC., priority 2022, published 2025).
# Several values for one entry are separate records, joined by “and”; a condition that tells them apart may be missing. Equal entries are not always repeated.
# What was measured:
# [1] = test system: narcolepsy with cataplexy; test: Maintenance of Wakefulness Test (MWT) score in a patient with narcolepsy with cataplexy; type: in vivo, human; conditions: single patient, 5 mg at 8 am and 5 mg at 1 pm each day
# Method: (§1) A person is diagnosed as suffering from narcolepsy with cataplexy. They are given mazindol and instructed to take 5 mg of mazindol at 8 am and 5 mg of mazindol at 1 pm […] After one week of treatment, the MWT score has increased by 10-30%.
# as §1, with “pm each day for three weeks. The patient is evaluated prior to treatment, and weekly to determine the MWT score, the number of cataplexy attacks, the PGI-C score, the HAM-D” for “pm”, “30-60%.” for “10-30%.”
# (§2) A person is diagnosed as suffering from narcolepsy with cataplexy. […] The patient is evaluated prior to treatment, and weekly to determine the MWT score, the number of cataplexy attacks, the PGI-C score, the HAM-D score, the ESS score, the NSAQ score, and the ability to concentrate on the NSAQ. […]
# as §2
# [2] = test system: narcolepsy with cataplexy; test: Hamilton Depression Rating Scale (HAM-D) score in a patient with narcolepsy with cataplexy; type: in vivo, human; conditions: single patient; 5 mg at 8 am and 5 mg at 1 pm each day; after three weeks of treatment
# Method: as §1, with “three weeks” for “one week”, “HAM-D” for “MWT”, “decreased” for “increased”
# (§3) A person is diagnosed as suffering from narcolepsy with cataplexy. They are given mazindol and instructed to take 5 mg of mazindol at 8 am and 5 mg of mazindol at 1 pm each day for three weeks. The patient is evaluated prior to treatment, and weekly to determine the MWT score, the number of cataplexy attacks, the PGI-C score, the HAM-D score, the ESS score, the NSAQ score, and the ability to concentrate on the NSAQ. After three weeks of treatment, the HAM-D score has decreased by 30-60%.
# as §3, with “60-100%.” for “30-60%.”
# [3] = human patients; without controlled release coating; cited from earlier work
# [4] = test system: narcolepsy with cataplexy; test: Number of cataplexy attacks in a patient with narcolepsy with cataplexy; type: in vivo, human; conditions: single patient, 5 mg at 8 am and 5 mg at 1 pm each day
# Method: as §3, with “After one week” for “After three weeks”, “the number of cataplexy attacks have” for “the HAM-D score has”, “by 10-30%.” for “by 30-60%.”
# as §3, with “After one week” for “After three weeks”, “the number of cataplexy attacks have” for “the HAM-D score has”
# A person is diagnosed as suffering from narcolepsy with cataplexy. […]
# as §2
# [5] = test system: narcolepsy with cataplexy; test: Epworth Sleepiness Scale (ESS) score in a patient with narcolepsy with cataplexy; type: in vivo, human; conditions: single patient, 5 mg at 8 am and 5 mg at 1 pm each day
# Method: (§4) A person is diagnosed as suffering from narcolepsy with cataplexy. They are given mazindol and instructed to take 5 mg of mazindol at 8 am and 5 mg of mazindol at 1 pm each day for three weeks. The patient is evaluated prior to treatment, and weekly to determine the MWT score, the number of cataplexy attacks, the PGI-C score, the HAM-D score, the ESS score, the NSAQ score, and the ability to concentrate on the NSAQ. After one week of treatment, the ESS score has decreased by 10-30%.
# as §4, with “30-60%.” for “10-30%.”
# as §3, with “After three weeks of treatment, the HAM-D score has decreased by 30-60%.” left out
smiles,measurement,setting,value
OC1(c2ccc(Cl)cc2)c2ccccc2C2=NCCN21 (centres unmarked) [mazindol],increase in MWT score,[1]; after one week of treatment,10-30% and 30-60% and 60-100%
same,increase in MWT score,[1]; after three weeks of treatment,10-30% and 30-60% and 60-100%
same,decrease in HAM-D score,[2],10-30% and 30-60% and 60-100%
same,time to reach a maximum plasma concentration,[3],2 to 4 h
same,decrease in the number of cataplexy attacks,[4]; after one week of treatment,10-30% and 30-60% and 60-100%
same,decrease in the number of cataplexy attacks,[4]; after three weeks of treatment,10-30% and 30-60% and 60-100%
same,decrease in ESS score,[5]; after one week of treatment,10-30% and 30-60% and 60-100%
same,decrease in ESS score,[5]; after three weeks of treatment,10-30% and 30-60% and 60-100%
